Tests used:
Assay in all cases: stopped-flow CO2 hydrase assay
Format in all cases: biochemical
Conditions in all cases: read-out: [drawing 1] / 1
hCA VII = biological target: T1, hCA VII (Homo sapiens, UniProt P43166)
T1 construct: gene CA7; recombinant, in-house
Description: stopped-flow CO2 hydrase assay on hCA VII

hCA IV = biological target: T2, hCA IV (Homo sapiens, UniProt P22748)
T2 construct: gene CA4; recombinant, in-house
Description: stopped-flow CO2 hydrase assay on hCA IV

hCA II = biological target: T3, hCA II (Homo sapiens, UniProt P00918)
T3 construct: gene CA2; recombinant, in-house
Description: stopped-flow CO2 hydrase assay on hCA II

hCA VB = biological target: T4, hCA VB (Homo sapiens, UniProt Q9Y2D0)
T4 construct: gene CA5B; recombinant, in-house
T4 sequence (Q9Y2D0 34-317): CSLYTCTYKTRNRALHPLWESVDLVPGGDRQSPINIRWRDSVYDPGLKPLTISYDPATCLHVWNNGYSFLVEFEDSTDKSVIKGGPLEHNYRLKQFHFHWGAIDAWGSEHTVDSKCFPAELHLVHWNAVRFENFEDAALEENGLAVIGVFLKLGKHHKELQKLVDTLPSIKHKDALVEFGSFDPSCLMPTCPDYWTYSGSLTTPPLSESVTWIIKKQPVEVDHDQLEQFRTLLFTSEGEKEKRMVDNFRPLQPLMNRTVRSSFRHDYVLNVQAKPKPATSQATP
Description: stopped-flow CO2 hydrase assay on hCA VB

hCA XIV = biological target: T5, hCA XIV (Homo sapiens, UniProt Q9ULX7)
T5 construct: gene CA14; recombinant, in-house
T5 sequence (Q9ULX7 16-290 limits assumed): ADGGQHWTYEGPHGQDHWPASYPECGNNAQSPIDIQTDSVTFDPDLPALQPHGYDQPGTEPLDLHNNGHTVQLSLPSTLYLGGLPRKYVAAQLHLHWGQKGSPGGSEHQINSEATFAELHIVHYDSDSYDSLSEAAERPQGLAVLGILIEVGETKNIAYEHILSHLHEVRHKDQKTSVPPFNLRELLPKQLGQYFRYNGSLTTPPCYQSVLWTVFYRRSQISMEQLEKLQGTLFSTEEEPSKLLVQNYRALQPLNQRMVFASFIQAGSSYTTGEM
Description: stopped-flow CO2 hydrase assay on hCA XIV

hCA I = biological target: T6, hCA I (Homo sapiens, UniProt P00915)
T6 construct: gene CA1; recombinant, in-house
T6 sequence (P00915 2-261): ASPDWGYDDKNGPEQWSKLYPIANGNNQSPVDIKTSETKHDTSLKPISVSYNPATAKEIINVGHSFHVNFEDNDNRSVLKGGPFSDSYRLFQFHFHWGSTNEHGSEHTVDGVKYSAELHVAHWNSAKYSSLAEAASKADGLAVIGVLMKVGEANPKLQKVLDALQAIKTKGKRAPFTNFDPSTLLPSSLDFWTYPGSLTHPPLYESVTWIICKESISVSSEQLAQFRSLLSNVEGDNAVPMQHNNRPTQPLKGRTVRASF
Description: stopped-flow CO2 hydrase assay on hCA I

hCA VI = biological target: T7, hCA VI (Homo sapiens, UniProt P23280)
T7 construct: gene CA6; recombinant, in-house
T7 sequence (P23280 18-308): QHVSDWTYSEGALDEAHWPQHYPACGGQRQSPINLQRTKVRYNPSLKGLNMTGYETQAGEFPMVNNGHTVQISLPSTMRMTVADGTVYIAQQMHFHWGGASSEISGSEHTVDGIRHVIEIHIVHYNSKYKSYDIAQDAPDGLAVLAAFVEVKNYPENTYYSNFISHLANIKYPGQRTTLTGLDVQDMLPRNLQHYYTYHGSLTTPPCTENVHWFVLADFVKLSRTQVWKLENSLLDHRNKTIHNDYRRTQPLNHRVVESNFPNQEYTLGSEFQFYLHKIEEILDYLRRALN
Description: stopped-flow CO2 hydrase assay on hCA VI

hCA IX = biological target: T8, hCA IX (Homo sapiens, UniProt Q16790)
T8 construct: gene CA9; recombinant, in-house
Description: stopped-flow CO2 hydrase assay on hCA IX

hCA XII = biological target: T9, hCA XII (Homo sapiens, UniProt O43570)
T9 construct: gene CA12; recombinant, in-house
T9 sequence (O43570 25-354): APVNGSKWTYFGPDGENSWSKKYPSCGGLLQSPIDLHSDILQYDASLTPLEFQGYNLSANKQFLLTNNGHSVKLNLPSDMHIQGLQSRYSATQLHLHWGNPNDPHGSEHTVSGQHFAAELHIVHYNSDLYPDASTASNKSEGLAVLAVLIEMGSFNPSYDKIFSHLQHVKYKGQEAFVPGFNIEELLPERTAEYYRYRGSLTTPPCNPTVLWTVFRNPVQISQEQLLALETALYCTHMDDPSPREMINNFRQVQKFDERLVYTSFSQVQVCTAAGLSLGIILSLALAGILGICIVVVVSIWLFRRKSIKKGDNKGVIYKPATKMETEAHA
Description: stopped-flow CO2 hydrase assay on hCA XII

hCA VA = biological target: T10, hCA VA (Homo sapiens, UniProt P35218)
T10 construct: gene CA5A; recombinant, in-house
T10 sequence (P35218 39-305): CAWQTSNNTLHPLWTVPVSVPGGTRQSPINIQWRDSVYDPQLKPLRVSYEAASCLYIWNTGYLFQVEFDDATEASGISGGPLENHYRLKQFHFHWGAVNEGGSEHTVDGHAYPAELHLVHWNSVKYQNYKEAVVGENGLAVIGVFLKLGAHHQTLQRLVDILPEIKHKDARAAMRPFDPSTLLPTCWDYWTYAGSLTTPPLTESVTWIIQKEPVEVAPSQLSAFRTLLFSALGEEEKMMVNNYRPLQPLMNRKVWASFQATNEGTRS
Description: stopped-flow CO2 hydrase assay on hCA VA

hCA XIII = biological target: T11, hCA XIII (Homo sapiens, UniProt Q8N1Q1)
T11 construct: gene CA13; recombinant, in-house
T11 sequence (Q8N1Q1 whole entry): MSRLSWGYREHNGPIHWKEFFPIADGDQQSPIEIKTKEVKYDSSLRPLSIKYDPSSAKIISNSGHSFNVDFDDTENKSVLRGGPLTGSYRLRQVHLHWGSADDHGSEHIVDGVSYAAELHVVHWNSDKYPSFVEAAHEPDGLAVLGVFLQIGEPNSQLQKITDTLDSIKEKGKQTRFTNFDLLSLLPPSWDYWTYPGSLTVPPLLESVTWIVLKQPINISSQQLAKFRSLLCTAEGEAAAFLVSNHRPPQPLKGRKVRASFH
Description: stopped-flow CO2 hydrase assay on hCA XIII

T2 sequence (P22748 19-284): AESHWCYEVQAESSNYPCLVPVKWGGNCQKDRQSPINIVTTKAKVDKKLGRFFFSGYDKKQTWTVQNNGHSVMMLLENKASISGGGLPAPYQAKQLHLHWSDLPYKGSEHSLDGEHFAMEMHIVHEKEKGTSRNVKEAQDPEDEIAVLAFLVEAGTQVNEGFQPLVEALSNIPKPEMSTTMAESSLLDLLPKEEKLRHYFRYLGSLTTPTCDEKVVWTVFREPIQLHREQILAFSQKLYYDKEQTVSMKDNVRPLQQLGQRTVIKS
T1 sequence (P43166 whole entry): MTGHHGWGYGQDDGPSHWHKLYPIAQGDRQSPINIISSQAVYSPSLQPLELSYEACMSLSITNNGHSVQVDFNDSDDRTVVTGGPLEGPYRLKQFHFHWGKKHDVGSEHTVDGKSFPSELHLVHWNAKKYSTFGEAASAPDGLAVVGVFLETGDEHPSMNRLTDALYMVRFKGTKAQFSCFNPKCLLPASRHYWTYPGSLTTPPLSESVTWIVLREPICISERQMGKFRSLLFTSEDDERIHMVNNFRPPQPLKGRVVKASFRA

## Cc1cnc(C(=O)O)c[n+]1[O-] [compound 1, Acipimox]
hCA VII
  Ki: 9.2 µM
hCA IV
  Ki: 8.8 µM
hCA II
  Ki: 7.5 µM
hCA VB
  Ki: 2.8 µM
hCA XIV
  Ki: 5.9 µM
hCA I
  Ki: 3.3 µM
hCA VI
  Ki: 7 µM
hCA IX
  Ki: 6.3 µM
hCA XII
  Ki: 8.4 µM
hCA VA
  Ki: 7.5 µM
hCA XIII
  Ki: 87 µM

— PMC8843171 (Journal of Enzyme Inhibition and Medicinal Chemistry, 2022)
